# Assay results taken from patent US10266550B2, “Bacterial topoisomerase I inhibitors with antibacterial activity” (The Florida International University Board of Trustees, priority 2016, dated 2019).
# Like-named read-outs stand apart in the source and are kept apart here.
# Assays:
# [1] = test system: E. coli Imp4213 (BAS3023); assay: MIC, microdilution in Mueller-Hinton Broth; format: cell-based; settings: for MIC: Escherichia coli, read-out: Whole cell based antibacterial activity (MIC) E. coli Imp4213 (BAS3023), membrane permeable imp mutant; for Whole cell based antibacterial activity (MIC) E. coli Imp4213 (BAS3023): membrane permeable imp mutant
# E. coli (MG1655) WT = assay: MIC, microdilution in Mueller-Hinton Broth; settings: wild type, read-out: Whole cell based antibacterial activity (MIC) E. coli (MG1655) WT
# E. coli topoisomerase I = E. coli topoisomerase I (Escherichia coli (strain K12), UniProt P06612); assay: biochemical; format: biochemical
# Protocol: Recombinant E. coli topoisomerase I and gyrase expressed in E. coli were purified as described previously.
# E. coli Topoisomerase I Relaxation Activity Inhibition Assay
# The relaxation activity of E. coli topoisomerase I was assayed in a buffer containing 10 mM Tris-HCl, pH 8.0, 50 mM NaCl, 0.1 mg/mL gelatin, and 0.5 mM MgCl2. Half microliter from the appropriate stock solutions of compounds dissolved in the solvent (DMSO) or the solvent alone (control) was mixed with 9.5 μL of the reaction buffer containing 10 ng of enzyme before the addition of 10 μL of reaction buffer containing 200 ng of supercoiled pBAD/Thio plasmid DNA purified by cesium chloride gradient as substrate. Following incubation at 37° C. for 30 min, the reactions were terminated by the addition of 4 μL of a stop buffer (50% glycerol, 50 mM EDTA, and 0.5% (v/v) bromophenol blue), and analyzed by agarose gel electrophoresis. The gels were stained in ethidium bromide and photographed under UV light.
# [2] = test system: B. subtilis (ATCC 6633) WT; assay: MIC, microdilution in Mueller-Hinton Broth; settings: read-out: Whole cell based antibacterial activity (MIC) B. subtilis (ATCC 6633) WT
# M. tuberculosis (H37Rv) = assay: MIC, microplate Alamar blue assay (MABA); format: cell-based; settings: MABA, read-out: Whole cell based antibacterial activity (MIC) M. tuberculosis (H37Rv)
# Vero cells = assay: Vero cell cytotoxicity assay; format: cell-based; settings: for IC50: cytotoxicity
# Protocol: MICs of compounds against M. tuberculosis were determined by a modified microplate Alamar blue assay (MABA). Vero cell cytotoxicity assay was performed as previously described.
# Human topoisomerase I = Human topoisomerase I (Homo sapiens (Human), UniProt P11387); assay: Human topoisomerase I relaxation inhibition assay; format: biochemical; settings: read-out: Topoisomerase inhibitory activity (IC50) Human topo I (type IB)
# Protocol: Human topoisomerase I relaxation assays were carried out with 0.5 U of enzyme in reaction buffer supplied by the manufacturer. The enzyme was mixed with the indicated concentration of compound dissolved before 200 ng of supercoiled pBAD/Thio plasmid DNA was added in the same buffer, for a final volume of 20 μL. Following incubation at 37° C. for 30 minutes, the reactions were terminated with a buffer containing 5% SDS, 0.25% bromophenol blue, and 25% glycerol, and analyzed by agarose gel electrophoresis.
# Human topoisomerase I and topoisomerase IIα were purchased from TopoGen (Buena vista, CO, USA).
# [3] = Topoisomerase inhibitory activity (IC50) E. coli topo I (type IA), relaxation of supercoiled plasmid DNA
# [4] = experimental, converted from IC50
# [5] = Bacillus subtilis, ATCC6633, wild type
# [6] = Table 3, E. coli topoisomerase I, single values set for ranges and bounds, read-out: IC50 (μM) used for CoMFA
# [7] = relaxation of supercoiled plasmid DNA, read-out: Topoisomerase inhibitory activity (IC50) E. coli topo I (type IA)
# Chain of E. coli topoisomerase I (P06612 whole entry, looked up): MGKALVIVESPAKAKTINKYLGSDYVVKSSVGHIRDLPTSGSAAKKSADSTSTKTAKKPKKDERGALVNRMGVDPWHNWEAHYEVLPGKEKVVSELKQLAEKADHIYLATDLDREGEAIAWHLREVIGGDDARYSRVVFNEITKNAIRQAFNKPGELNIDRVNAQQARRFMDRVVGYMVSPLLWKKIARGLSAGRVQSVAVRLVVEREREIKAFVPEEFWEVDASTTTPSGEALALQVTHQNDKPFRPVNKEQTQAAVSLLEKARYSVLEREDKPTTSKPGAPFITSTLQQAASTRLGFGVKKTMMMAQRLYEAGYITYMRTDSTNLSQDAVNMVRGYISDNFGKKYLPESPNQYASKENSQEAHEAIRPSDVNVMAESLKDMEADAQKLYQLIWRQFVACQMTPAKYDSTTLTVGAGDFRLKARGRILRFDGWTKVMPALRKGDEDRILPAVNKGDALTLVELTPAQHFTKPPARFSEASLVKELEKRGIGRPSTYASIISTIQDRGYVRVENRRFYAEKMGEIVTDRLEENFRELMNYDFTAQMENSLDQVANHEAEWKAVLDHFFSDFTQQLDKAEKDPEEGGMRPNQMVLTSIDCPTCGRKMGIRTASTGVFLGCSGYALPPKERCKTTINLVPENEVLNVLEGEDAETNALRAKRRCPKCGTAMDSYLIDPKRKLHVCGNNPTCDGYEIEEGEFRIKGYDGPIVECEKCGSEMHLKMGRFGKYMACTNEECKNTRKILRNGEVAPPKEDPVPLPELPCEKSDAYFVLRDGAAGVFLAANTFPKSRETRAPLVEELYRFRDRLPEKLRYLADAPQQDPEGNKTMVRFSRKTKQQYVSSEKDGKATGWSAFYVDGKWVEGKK
# Chain of Human topoisomerase I (P11387 whole entry): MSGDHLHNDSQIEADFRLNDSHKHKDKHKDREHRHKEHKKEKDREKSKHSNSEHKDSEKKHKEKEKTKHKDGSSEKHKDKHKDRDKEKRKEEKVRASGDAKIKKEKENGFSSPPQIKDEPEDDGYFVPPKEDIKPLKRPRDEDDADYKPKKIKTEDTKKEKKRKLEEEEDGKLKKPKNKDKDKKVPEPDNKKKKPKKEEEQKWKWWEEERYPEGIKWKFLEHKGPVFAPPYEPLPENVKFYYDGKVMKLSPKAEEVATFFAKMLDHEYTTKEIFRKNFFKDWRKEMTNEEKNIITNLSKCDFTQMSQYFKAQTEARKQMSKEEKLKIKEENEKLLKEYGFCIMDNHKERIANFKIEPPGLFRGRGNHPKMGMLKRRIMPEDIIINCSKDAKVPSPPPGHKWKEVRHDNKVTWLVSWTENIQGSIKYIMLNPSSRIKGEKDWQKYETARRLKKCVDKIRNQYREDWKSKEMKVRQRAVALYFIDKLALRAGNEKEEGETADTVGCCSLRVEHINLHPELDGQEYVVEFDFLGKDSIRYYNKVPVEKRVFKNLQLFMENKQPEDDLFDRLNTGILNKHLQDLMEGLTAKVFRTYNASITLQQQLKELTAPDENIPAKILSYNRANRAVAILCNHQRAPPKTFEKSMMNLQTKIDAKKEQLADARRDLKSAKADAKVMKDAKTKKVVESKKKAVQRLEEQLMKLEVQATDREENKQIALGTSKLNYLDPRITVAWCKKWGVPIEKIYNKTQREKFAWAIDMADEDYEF
SMILES,MIC [1],"MIC (E. coli (MG1655) WT; Escherichia coli, MG1655)",PIC50 (pIC50 = −log IC50) (E. coli topoisomerase I; [4]),IC50 (E. coli topoisomerase I; [7]),further results
"Nc1ccc2c(c1)Oc1c(NC3CCCC3)c(F)cc3c(=O)c(C(=O)O)cn-2c13 [Compound 11j, 9-Amino-6-(cyclopentylamino)-5-fluoro-3-oxo-3H-pyrido[3,2,1-kl]phenoxazine-2-carboxylic acid]",25 µM,> 200 µM,5.41,,IC50 (E. coli topoisomerase I; [3]): 3.9 to 15.6 µM
"CCOC(=O)c1cn2c3c(c(N4CCN(C)CC4)c(F)cc3c1=O)Oc1cc([N+](=O)[O-])ccc1-2 [Compound 9, Ethyl-5-fluoro-6-(4-methylpiperazin-1-yl)-9-nitro-3-oxo-3H-pyrido[3,2,1-kl]phenoxazine-2-carboxylate]",25 µM,> 200 µM,5.71,,
"CC(=O)Nc1ccc2c(c1)Oc1c(F)c(F)cc3c(=O)c(C(=O)O)cn-2c13 [Compound 12, 9-acetamido-5,6-difluoro-3-oxo-3H-pyrido[3,2,1-kl]phenoxazine-2-carboxylic acid]",,> 200 µM,5.11,,"MIC [2, 5]: > 200 µM"
"CCOC(=O)c1cn2c3c(c(F)c(F)cc3c1=O)Oc1cc([N+](=O)[O-])ccc1-2 [Compound 6a, Ethyl 5,6-difluoro-9-nitro-3-oxo-3H-pyrido[3,2,1-kl]phenoxazine-2-carboxylate]",50 µM,> 200 µM,4.81,,
"Nc1ccc2c(c1)Oc1c(NC34CC5CC(CC(C5)C3)C4)c(F)cc3c(=O)c(C(=O)O)cn-2c13 [Compound 11f, 6-(((3s, 5s, 7s)-Adamantan-1-yl)amino)-9-amino-5-fluoro-3-oxo-3H-pyrido[3,2,1-kl]phenoxazine-2-carboxylic acid]",,,5.23,3.9 to 7.8 µM,MIC (M. tuberculosis (H37Rv)): 38.4 µM; Whole cell based antibacterial activity (MIC) E. coli Imp4213 (BAS3023) [1]: 3.12 µM; MIC (E. coli (MG1655) WT): >200 µM; IC50 (E. coli topoisomerase I; [6]): 5.85 µM; MIC ([2]; wild type): 12.5 µM; SI (Selectivity index = cytotoxic IC50 against Vero cells/MIC against M. tuberculosis) (Vero cells): 0.8; IC50 (Vero cells): 30.7 µM
"CCOC(=O)c1cn2c3c(c(F)c(F)cc3c1=O)Oc1cc(C(F)(F)F)ccc1-2 [Compound 6c, Ethyl 5,6-difluoro-3-oxo-9-(trifluoromethyl)-3H-pyrido[3,2, I-kl]phenoxazine-2-carboxylate]",,,3.60,> 125 µM,Whole cell based antibacterial activity (MIC) E. coli Imp4213 (BAS3023) [1]: >200 µM; MIC (E. coli (MG1655) WT): >200 µM; activity against topoisomerase I when tested at 125 μM (E. coli topoisomerase I): inactive; IC50 (E. coli topoisomerase I; [6]): 250 µM; MIC ([2]; wild type): >200 µM
"CC(C)(C)OC(=O)N[C@H]1CCN(c2c(F)cc3c(=O)c(C(=O)O)cn4c3c2Oc2cc(N)ccc2-4)C1 [Compound 15a, (S)-9-amino-6-(3-((tert-butoxycarbonyl)amino)pyrrolidin-1-yl)-S-fluoro-3-oxo-3H-pyrido[3,2,1-kl]phenoxazine-2-carboxylic acid]",,,5.41,3.9 µM,Whole cell based antibacterial activity (MIC) E. coli Imp4213 (BAS3023) [1]: 12.5 µM; MIC (E. coli (MG1655) WT): >200 µM; IC50 (E. coli topoisomerase I; [6]): 3.9 µM; MIC ([2]; wild type): 12.5 µM
"CC1CCN(c2c(F)cc3c(=O)c(C(=O)O)cn4c3c2Oc2cc(N)ccc2-4)CC1 [Compound 11c, 9-Amino-5-fluoro-6-(4-methylpiperidin-1-yl)-3-oxo-3H-pyrido[3,2,1-kl]phenoxazine-2-carboxylic acid]",3.12 µM,> 200 µM,5.41,,IC50 (E. coli topoisomerase I; [3]): 3.9 to 15.6 µM
"N#Cc1ccc2c(c1)Oc1c(F)c(F)cc3c(=O)c(C(=O)O)cn-2c13 [Compound 7b, 9-Cyano-5,6-d fluoro-3-oxo-3H-pyrido[3,2,1-d]phenoxazine-2-carboxylic acid]",,,4.51,31.2 µM,Whole cell based antibacterial activity (MIC) E. coli Imp4213 (BAS3023) [1]: 200 µM; MIC (E. coli (MG1655) WT): >200 µM; IC50 (E. coli topoisomerase I; [6]): 31.2 µM; MIC ([2]; wild type): >200 µM
"O=C(O)c1cn2c3c(c(F)c(F)cc3c1=O)Oc1cc([N+](=O)[O-])ccc1-2 [Compound 7a, 5,6-Difluoro-9-nitro-3-oxo-3H-pyrido[3,2,1-kl]phenoxazine-2-carboxylic acid]",0.78 µM,200 µM,4.81,,
"O=C(O)c1cn2c3c(c(N4CCNCC4)c(F)cc3c1=O)Oc1cc([N+](=O)[O-])ccc1-2 [Compound 10b, 5-Fluoro-9-nitro-3-oxo-6-(piperazin-1-yl)-3H-pyrido[3,2,1-kl]phenoxazine-2-carboxylic acid]",,> 200 µM,5.41,,"MIC [2, 5]: > 200 µM"
"CC(=O)c1ccc2c(c1)Oc1c(F)c(F)cc3c(=O)c(C(=O)O)cn-2c13 [Compound 7d, 9-A cetyl-5,6-difluoro-3-oxo-3H-pyrido[3,2,1-kl]phenoxazine-2-carboxylic acid]",,> 200 µM,4.81,,"MIC [2, 5]: > 200 µM"
"CCCCCCNc1c(F)cc2c(=O)c(C(=O)O)cn3c2c1Oc1cc(N)ccc1-3 [Compound 11k, 9-Amino-5-fluoro-6-(hexylamino)-3-oxo-3H-pyrido[3,2,1-kl]phenoxazine-2-carboxylic acid]",,> 200 µM,4.81,,"IC50 (E. coli topoisomerase I; [3]): 3.9 to 15.6 µM; MIC [2, 5]: > 200 µM"
"O=C(O)c1cn2c3c(c(F)c(F)cc3c1=O)Oc1cc(C(F)(F)F)ccc1-2 [Compound 7c, 5,6-Difluoro-3-oxo-9-(trifluoromethyl)-3H-pyrido[3,2,1-kl]phenoxazine-2-carboxylic acid]",,> 200 µM,,> 125 µM,"activity against topoisomerase I when tested at 125 μM (E. coli topoisomerase I): inactive; IC50 (E. coli topoisomerase I; IC50 (μM) used for CoMFA, Table 3, E. coli topoisomerase I, single values set for ranges and bounds): 250 µM; IC50 (E. coli topoisomerase I; PIC50 (pIC50 = −log IC50), experimental, converted from IC50): 245 µM"
"Nc1ccc2c(c1)Oc1c(N3CC[C@H](N)C3)c(F)cc3c(=O)c(C(=O)O)cn-2c13 [Compound 17a, (S)-9-amino-6-(3-aminopyrrolidin-1-yl)-S-fluoro-3-oxo-3H-pyrido[3,2,1-kl]phenoxazine-2-carboxylic acid]",,,6.14,0.48 to 0.97 µM,MIC (M. tuberculosis (H37Rv)): >63.1 µM; Whole cell based antibacterial activity (MIC) E. coli Imp4213 (BAS3023) [1]: 1.56 µM; MIC (E. coli (MG1655) WT): >200 µM; IC50 (E. coli topoisomerase I; [6]): 0.73 µM; MIC ([2]; wild type): 6.25 µM; IC50 (Vero cells): > 63.1 µM
"CCOC(=O)c1cn2c3c(c(F)c(F)cc3c1=O)Oc1cc(C#N)ccc1-2 [Compound 6b, Ethyl 9-cyano-5,6-difluoro-3-oxo-3H-pyrido[3,2,1-kl]phenoxazine-2-carboxylate]",,> 200 µM,4.51,,
"Nc1ccc2c(c1)Oc1c(N3CCNCC3)c(F)cc3c(=O)c(C(=O)O)cn-2c13 [Compound 11b, 9-Amino-5-fluoro-3-oxo-6-(piperazin-1-yl)-3H-pyrido[3,2,1-kl]phenoxazine-2-carboxylic acid]",0.39 µM,> 200 µM,6.62,,"IC50 (Human topoisomerase I): 7.8 µM; IC50 (E. coli topoisomerase I; [3]): 0.24 to 0.97 µM; IC50 (Vero cells; Chlorocebus sabaeus, Vero): > 126 µM"
"Nc1ccc2c(c1)Oc1c(N3CC[C@@H](N)C3)c(F)cc3c(=O)c(C(=O)O)cn-2c13 [Compound 17b, (R)-9-amino-6-(3-aminopyrrolidin-1-yl)-5-fluoro-3-oxo-3H-pyrido[3,2,1-kl]phenoxazine-2-carboxylic acid]",6.25 µM,> 200 µM,6.14,,"MIC (M. tuberculosis (H37Rv)): >63.1 µM; MIC (M. tuberculosis (H37Rv); Mycobacterium tuberculosis, H37RV): > 63.1 µM; IC50 (Vero cells; Chlorocebus sabaeus, Vero): > 63.1 µM"
"Nc1ccc2c(c1)Oc1c(NC3CCCCC3)c(F)cc3c(=O)c(C(=O)O)cn-2c13 [Compound 11i, 9-Amino-6-(cyclohexylamino)-5-fluoro-3-oxo-3H-pyrido[3,2,1-kl]phenoxazine-2-carboxylic acid]",25 µM,> 200 µM,5.41,,IC50 (E. coli topoisomerase I; [3]): 3.9 to 15.6 µM
